Reference: US6642227B2, “Inhibitors of c-Jun N-terminal kinases (JNK) and other protein kinases” (Vertex Pharmaceuticals Incorporated, priority 2001, dated 2003)

Target: T1, activated JNK3 (Homo sapiens, UniProt P53779)
T1 construct: One such construct encodes amino acid residues Ser40-Glu402 of JNK3α1 and is preceded by Met and Gly residues; Met-Gly dipeptide (initiator Met plus Gly added for the NcoI site) (N); made in house; host or cells: E. coli BL21 (DE3)
Assay: JNK inhibition assay (spectrophotometric coupled-enzyme assay)
Type: biochemical
Settings: activated JNK3 10 nM, 10 μM ATP, 30° C.; read-out: JNK3 Activity (Ki class A-C)
Description: A BLAST search of the EST database using the published JNK3α1 cDNA as a query identified an EST clone (#632588) that contained the entire coding sequence for human JNK3α1. Polymerase chain reactions (PCR) using pfu polymerase (Strategene) were used to introduce restriction sites into the cDNA for cloning into the pET-15B expression vector at the NcoI and BamHI sites. The protein was expressed in E. coli. Due to the poor solubility of the expressed full-length protein (Met 1-Gln 422), an N-terminally truncated protein starting at Ser residue at position 40 (Ser 40) was produced. This truncation corresponds to Ser 2 of JNK1 and JNK2 proteins, and is preceded by a methionine (initiation) and a glycine residue. The glycine residue was added in order to introduce an NcoI site for cloning into the expression vector. In addition, systematic C-terminal truncations were performed by PCR to identify a construct that give rise to diffraction-quality crystals. One such construct encodes amino acid residues Ser40-Glu402 of JNK3α1 and is preceded by Met and Gly residues.
The construct was prepared by PCR using deoxyoligonucleotides: 5′ […] 3′ (forward primer with initiation codon underlined)(SEQ ID NO:1) and 5′ […] 3′ (reverse primer with stop codon underlined)(SEQ ID NO:2) as primers and was confirmed by DNA sequencing.
E.coli strain BL21 (DE3) (Novagen) was transformed with the JNK3 expression construct and grown at 30° C. in LB supplemented with 100 μg/ml carbenicillin in shaker flasks until the cells were in log phase (OD600˜0.8). Isopropylthio-β-D-[…] (IPTG) was added to a final concentration of 0.8 mM and the cells were harvested 2 hours later by centrifugation.
E. coli cell paste containing JNK3 was resuspended in 10 volumes/g lysis buffer (50 mM HEPES, pH 7.2, containing 10% glycerol (v/v), 100 mM NaCl, 2 mM DTT, 0.1 mM PMSF, 2 μg/ml Pepstatin, lug/ml each of E-64 and Leupeptin). Cells were lysed on ice using a microfluidizer and centrifuged at 100,000×g for 30 min at 4° C. The 100,000×g supernatant was diluted 1:5 with Buffer A (20 mM HEPES, pH 7.0, 10% glycerol (v/v), 2 mM DTT) and purified by SP-Sepharose (Pharmacia) cation-exchange chromatography (column dimensions: 2.6×20 cm) at 4° C. The resin was washed with 5 column volumes of Buffer A, followed by 5 column volumes of Buffer A containing 50 mM NaCl. Bound JNK3 was eluted with a 7.5 column volume linear gradient of 50-300 mM NaCl. JNK3 eluted between 150-200 mM NaCl.
Five mg of JNK3 was diluted to 0.5 mg/ml in 50 mM HEPES buffer, pH 7.5, containing 100 mM NaCl, 5 mM DTT, 20 mM MgCl2 and 1 mM ATP. GST-MKK7(DD) was added at a molar ratio of 1:2.5 GST-MKK7:JNK3. After incubation for 30 minutes at 25° C., the reaction mixture was concentrated 5-fold by ultrafiltration in a Centriprep-30 (Amicon, Beverly, Mass.), diluted to 10 ml and an additional 1 mM ATP added. This procedure was repeated three times to remove ADP and replenish ATP. The final addition of ATP was 5 mM and the mixture incubated overnight at 4° C.
The activated JNK3/GST-MKK7(DD) reaction mixture was exchanged into 50 mM HEPES buffer, pH 7.5, containing 5 mM DTT and 5% glycerol (w/v) by dialysis or ultrafiltration. The reaction mixture was adjusted to 1.1 M potassium phosphate, pH 7.5, and purified by hydrophobic interaction chromatography (at 25° C.) using a Rainin Hydropore column. […] Activated JNK3 (i.e. doubly phosphorylated JNK3) was stored at −70° C. at 0.25-1 mg/ml.
Compounds were assayed for the inhibition of JNK3 by a spectrophotometric coupled-enzyme assay. In this assay, a fixed concentration of activated JNK3 (10 nM) was incubated with various concentrations of a potential inhibitor dissolved in DMSO for 10 minutes at 30° C. in a buffer containing 0.1 M HEPES buffer, pH 7.5, containing 10 mM MgCl2, 2.5 mM phosphoenolpyruvate, 200 μM NADH, 150 μg/mL pyruvate kinase, 50 μg/mL lactate dehydrogenase, and 200 μM EGF receptor peptide. […]

T1 sequence (P53779 40-402): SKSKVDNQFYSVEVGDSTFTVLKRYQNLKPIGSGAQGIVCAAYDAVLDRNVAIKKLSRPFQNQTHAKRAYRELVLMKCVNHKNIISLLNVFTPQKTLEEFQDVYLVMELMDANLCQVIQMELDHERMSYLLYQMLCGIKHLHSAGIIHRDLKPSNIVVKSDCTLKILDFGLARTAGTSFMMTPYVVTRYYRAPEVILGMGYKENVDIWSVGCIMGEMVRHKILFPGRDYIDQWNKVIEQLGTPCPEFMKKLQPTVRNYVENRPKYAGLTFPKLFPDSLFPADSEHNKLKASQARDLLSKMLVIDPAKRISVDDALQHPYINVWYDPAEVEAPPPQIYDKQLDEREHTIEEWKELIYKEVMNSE

## CSc1sc(-c2ccnc(Nc3ccccc3)n2)c(-c2ccc(Cl)cc2)c1C#N [IIa-10, 2-Methylsulfanyl-5-(2-phenylamino-pyrimidin-4-yl)-4-(4-chloro-phenyl)-thiophene-3-carbonitrile]
  Ki: < 100 nM

## CCOc1sc(-c2ccnc(Nc3ccccc3)n2)c(-c2ccc(Cl)cc2)c1C#N [IIa-11, 2-Ethoxy-5-(2-phenylamino-pyrimidin-4-yl)-4-(4-chloro-phenyl)-thiophene-3-carbonitrile]
  Ki: < 100 nM

## CSc1sc(-c2ccnc(Nc3ccccc3)n2)c(-c2ccc(C)cc2)c1C#N [IIa-14, 2-Methylsulfanyl-5-(2-phenylamino-pyrimidin-4-yl)-4-p-tolyl-thiophene-3-carbonitrile]
  Ki: < 100 nM

## CCOc1sc(-c2ccnc(Nc3ccccc3)n2)c(-c2ccc(C)cc2)c1C#N [IIa-15, 2-Ethoxy-5-(2-phenylamino-pyrimidin-4-yl)-4-p-tolyl-thiophene-3-carbonitrile]
  Ki: < 100 nM
